Test system: sows
Assay: Oral L-arginine supplementation of sows during pregnancy
Format: in vivo, pigs
Protocol: The experiment was performed with 197 sows that had already produced at least one litter. Sows in the control group (n=95) received a normal diet during gestation. Sows in the L-arginine group (n=102) received a normal diet from insemination until day 13 of pregnancy, an L-arginine supplemented diet from day 14 until day 31, again the control diet from day 32 until day 104 and again the L-arginine supplemented diet from day 105 until farrowing.
The L-arginine supplemented diet was the same as the control diet, except for the addition of 10 g L-arginine per kg.

**Q.** What does the source list for N=C(N)NCCC[C@H](N)C(=O)O [L-arginine]?
**A.** Sows (litters) with stillborn piglets (41 sows of the L-arginine group, same percentage as control): 47.1%; Average number of stillborn piglets in litters with stillborn piglets (not significantly different from control): 1.86±0.22; Birth weight NBA corrected for LS (piglets born alive, corrected for litter size): 1597 ± 24 g; Birth weight NBA (piglets born alive, not corrected for litter size): 1584 ± 27 g; Total number born + mummies (piglets per litter, corrected for parity, L-arginine diet day 14-31 and day 105 until farrowing, p<0.05 vs control): 12.74 ± 0.31; Total number born (TNB) (piglets per litter, L-arginine diet day 14-31 and day 105 until farrowing, p<0.05 vs control): 12.69 ± 0.31; Number born alive (NBA) (piglets per litter, L-arginine diet day 14-31 and day 105 until farrowing, p=0.055 vs control): 11.77 ± 0.30^+; Birth weight TNB corrected for LS (piglets, total number born, corrected for litter size): 1578 ± 23 g; Birth weight TNB (piglets, total number born, not corrected for litter size): 1563 ± 27 g; Farrowing rate (sows, diet with 10 g L-arginine per kg added, day 14-31 and day 105 until farrowing, 87/102): 85%; Effect on litter size (total number born and number born alive), piglets extra (versus control group): ~1 piglet

Source: US8303979B2, “Dietary modifications to improve fertility” (Nutreco Nederland B.V., priority 2001, dated 2012)
